{"source": "patent US9363996B2", "about": "“Compositions and method for blocking ethylene response in field crops using 3-(cy-clopropyl-l-enyl)-propanoic salt” (Yissum Research Development Company of the Hebrew …, priority 2009, dated 2016)", "key": {"[1]": {"system": "mature cotton leaf explants", "test": "Ethylene-induced petiole abscission of mature cotton leaf explants", "format": "in vivo, cotton (Gossyium hirsutum barbadense L.)", "settings": "for abscission: day 5", "description": "(§1) (1) Abscission—This is a very sensitive model system for studying the effects of plant hormones. Ethylene induces the process of abscission, while auxin delays it. In the laboratory the experimental system is based on plant organ explants, which include the abscission zone. Abscission is induced by exposure to ethylene and at the termination of the experiment the number of abscised organs, usually either leaf blades or petioles are counted and the fraction of abscission is calculated. In the case of fruit, the decrease in fruit retention force is analyzed. In cotton, when WS-CPD (the ethylene-action antagonist herein disclosed) is tested, the whole plants or explants are pretreated by spraying with the antagonist, dissolved in a phosphate buffer solution (10-20 mM, pH 7.0) including 0.1% commercially available Kinetic™ as surfactant, and left to incubate for a predetermined time, usually between 6 and 24 h. The plants or explants are then further exposed for 24 h to ethylene gas (5 to 20 μL L^−1). The plants or explants are then ventilated and incubated for the required time under controlled conditions. At the end of the experiment the percentage of abscission is determined. (2) Chlorophyll degradation—This is a standard model for studying senescence. Plant material (whole plants, excised leaves or leaf discs) are pretreated. In cotton, tobacco and wheat, when WS-CPD is tested, the whole plants or explants are pretreated by spraying with the antagonist, dissolved in phosphate buffer solution (10-20 mM, pH 7.0) including 0.1% commercially available Kinetic™ surfactant, and left to incubate for a predetermined time, usually between 6 and 241. The plants or explants are then further exposed for 24 h to ethylene gas (1 to 100 μL L^−1), or sprayed with Ethephon™ (wheat; 250 to 750 μL L^−1). The plants or explants are then ventilated and incubated for the required time under controlled conditions. At the end of the experiment a dimethylsulfoxide (DMSO) extract of the plant tissue is prepared, and the chlorophyll content of the extract is determined by spectrophotometric analysis. The chlorophyll content is reported either on a fresh, dry weight basis, or on a surface area basis. (3) Epinasty—This is also one of the classical methods for studying ethylene effects in plants. The extent of ethylene-induced epinasty of leaves is determined by measuring the change of the angle between the petiole and the stem shoot or blade. After exposure of the intact plant to ethylene, the upright grown leaves bend downward. The increase in the angle values (degrees) between petiole and the stem is used as a measure of the effect of the ethylene. […]"}, "[2]": {"system": "wheat plants", "test": "Wheat grain weight at the milky stages after Ethephon treatment", "format": "in vivo, wheat (Triticum turgidum var. 'Gdera')", "settings": "for grain yield increase by antagonizing Ethephon: fresh weight basis", "description": "as §1, with “ethylene. When WS-CPD is tested on cotton and wheat plants, the whole plants are pretreated by spraying with the antagonist dissolved in phosphate buffer solution (10-20 mM, pH 7.6) including 0.1% Kinetic™ as surfactant, and left to incubate for a predetermined time, usually between 6 and 24 h. The plants are then further exposed for 24 h to ethylene gas (cotton, 5 to 10 μL L^−1), or sprayed with Ethephon™ (wheat, 250 to 750 μL L^−1). The plants are then ventilated and incubated for the required time under controlled conditions. The epinastic effect is expressed by measuring the degree values of the downward curvature between the blade and petiole (cotton, FIGS. 1-3) or between the blade and the stem (wheat, FIGS. 31 and 32). (4) Wheat Grain yield—This is a common test of the effects of exposure of monocot plants either to environmental stresses such as drought that induce senescence by increasing endogenous ethylene production. Excessive internal or external ethylene will accelerate senescence which will lead to reduced grain yield. In this project the intact plants were grown in the greenhouse up to the spike hading at milky stage I and II. The plants were then sprayed with the dissolved WS-CPD in phosphate buffer solution (10 mM, pH 7.6) including 0.1% Kinetic™ as surfactant. Young Cotton Seedlings” for “ethylene.”"}, "[3]": {"system": "wheat plants", "test": "Wheat grain yield, 450 ml pots in peat-based medium", "format": "in vivo, wheat (Triticum turgidum var. 'Gdera')", "settings": "one spray WS-CPD 120 μl L^−1 (so in the source) at milky stage II", "description": "In another experiment the wheat plants were grown in 450 ml pots in a peat-based medium. The plants were sprayed once with WS-CPD (120 μl L^−1) at milky stage II, 7 months after germination. The results confirmed previous results, showing a −15% increase in grain yield over the weight of the grains of untreated control plants (FIG. 54). This is also evident when calculating the distribution of grain weight (as percentage of the total number of grains) and comparing them with grain weight distribution from control plants."}, "[4]": {"test": "Solubility in water", "format": "physicochemical", "settings": "25° C.", "description": "WS-CPD is highly soluble in water at 25° C. (≧400 mg mL^−1), FIG. 63. Upon heating, decomposition without melting occurs, beginning at 265-270° C."}}}
{"smiles": "O=C([O-])CCC1=CC1.[Na+]", "note": "[WS-CPD, 3-cyclopropyl-1-enyl-propanoic sodium salt]", "values": [{"measurement": "abscission percentage", "setting": "[1]; WS-CPD 90 μg mL^−1", "value": "slightly lower than that of the untreated air control"}, {"measurement": "abscission", "setting": "[1]; WS-CPD 10, 30 and 90 μg mL^−1", "value": 100, "unit": "%"}, {"measurement": "decrease of abscission", "setting": "[1]; WS-CPD 10 and 30 μg mL^−1, after 3 days of incubation, ethylene 10 μL L^−1", "value": 20, "unit": "%"}, {"measurement": "abscission", "setting": "[1]; WS-CPD 240-480 μg mL^−1", "value": 50, "unit": "%"}, {"measurement": "Ethephon-induced decrease of grain weight", "setting": "[2]; WS-CPD 135 μg mL^−1 pretreatment at milky stage I, both milky stages", "value": "prevented the decrease"}, {"measurement": "overcoming the Ethephon reduction in grain weight", "setting": "[2]; WS-CPD 80 to 180 μg mL^−1", "value": "best results"}, {"measurement": "grain yield increase by antagonizing Ethephon", "setting": "[2]; milky stage I", "value": "ca. 5%"}, {"measurement": "grain yield increase by antagonizing Ethephon", "setting": "[2]; milky stage II", "value": "ca. 16%"}, {"measurement": "increase in grain yield over untreated control plants", "setting": "[3]", "value": "−15", "unit": "%"}, {"measurement": "solubility", "setting": "[4]", "value": "≥ 400", "unit": "mg/mL"}]}
